Assay results reported in the NIST ThermoML archive (doi:10.1016/j.jct.2018.04.004).

Test: xn = mol fraction of the nth substance listed
Conditions: Liquid, pressure decay method, x1 = 0

FC(F)CC(F)(F)F [1,1,1,3,3-pentafluoropropane] + CCCCCC[n+]1ccn(C)c1.O=S(=O)([N-]S(=O)(=O)C(F)(F)F)C(F)(F)F gave a binary diffusion coefficient (303.15 K, 50.4 kPa) of 8.4e-11 m2/s, a binary diffusion coefficient (313.15 K, 63.9 kPa) of 1.22e-10 m2/s and a binary diffusion coefficient (323.15 K, 69.8 kPa) of 2.06e-10 m2/s. For the same molecule, the binary diffusion coefficient (333.15 K, 74.9 kPa) was 2.75e-10 m2/s and the binary diffusion coefficient (343.15 K, 84.6 kPa) was 3.47e-10 m2/s.

For FC(C(F)(F)F)C(F)(F)F [1,1,1,2,3,3,3-heptafluoropropane] + CCCCCC[n+]1ccn(C)c1.O=S(=O)([N-]S(=O)(=O)C(F)(F)F)C(F)(F)F, the binary diffusion coefficient (303.15 K, 99.7 kPa) was 2.72e-10 m2/s, the binary diffusion coefficient (313.15 K, 99.6 kPa) was 3.5e-10 m2/s and the binary diffusion coefficient (323.15 K, 97.1 kPa) was 5.28e-10 m2/s. It also gave a binary diffusion coefficient (333.15 K, 105 kPa) of 9.6e-10 m2/s and a binary diffusion coefficient (343.15 K, 104.6 kPa) of 1.26e-09 m2/s.

For FC(F)(F)CC(F)(F)F [1,1,1,3,3,3-hexafluoropropane] + CCCCCC[n+]1ccn(C)c1.O=S(=O)([N-]S(=O)(=O)C(F)(F)F)C(F)(F)F, the binary diffusion coefficient (303.15 K, 86 kPa) was 1.55e-10 m2/s, the binary diffusion coefficient (313.15 K, 85.5 kPa) was 2.4e-10 m2/s and the binary diffusion coefficient (323.15 K, 95.7 kPa) was 4.09e-10 m2/s. It also gave a binary diffusion coefficient (333.15 K, 90.1 kPa) of 5.96e-10 m2/s and a binary diffusion coefficient (343.15 K, 90.7 kPa) of 8.42e-10 m2/s.
